Measured values published in ChEMBL document CHEMBL1201862, “PubChem BioAssay data set” (2004).
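Test compounds were applied to cells in 96-well plates for 48 hours at 5 doses. GI50 is the concentration that inhibits growth by half.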 Activity calls are given as the source filed them. Cut-off read from the data, not from the text of the source: active = GI50 up to about 1.1 µM and inactive = higher.

Assays:
Assay in all cases: NCI-60 cell line screen, 48 h
[1] = tested on: COLO 205
[2] = tested on: HCT-116
[3] = tested on: HT-29
[4] = tested on: K562
[5] = tested on: KM12
[6] = tested on: LOX IMVI
[7] = tested on: Malme-3M
[8] = tested on: NCI-H226
[9] = tested on: NCI-H23
[10] = tested on: NCI-H460
[11] = tested on: OVCAR-8
[12] = tested on: SF-295
[13] = tested on: SF-539
[14] = tested on: SK-OV-3
[15] = tested on: UACC-257
[16] = tested on: UO-31
[17] = tested on: ACHN

Structure (SMILES) | GI50 [1] | GI50 [2] | GI50 [3] | GI50 [4] | GI50 [5] | GI50 [6] | GI50 [7] | GI50 [8] | GI50 [9] | GI50 [10] | GI50 [11] | GI50 [12] | GI50 [13] | GI50 [14] | GI50 [15] | GI50 [16] | GI50 [17]
CCCNC1=C(C)C(=O)C2=C(C1=O)[C@H](COC(N)=O)[C@]1(OC)[C@@H]3N[C@@H]3CN21 | 3.94 µM (inactive) | 3.69 µM (inactive) | 9.31 µM (inactive) | 12.1 µM (inactive) | 8.85 µM (inactive) | 1.6 µM (inactive) | 6.07 µM (inactive) | 6.27 µM (inactive) | 0.861 µM (active) | 0.0661 µM (active) | 10 µM (inactive) | 2.39 µM (inactive) | 4.39 µM (inactive) | 16.6 µM (inactive) | 5.55 µM (inactive) | 20.3 µM (inactive) | 
CC(=O)OCC1=C(C(=O)O)C(c2ccc3c(c2)OCO3)c2cc3c(cc2O1)OCO3 (stereo not drawn) | > 100 µM (inactive) | > 100 µM (inactive) | > 100 µM (inactive) | > 100 µM (inactive) |  | > 100 µM (inactive) | > 100 µM (inactive) |  | > 100 µM (inactive) | > 100 µM (inactive) | > 100 µM (inactive) | > 100 µM (inactive) | > 100 µM (inactive) | > 100 µM (inactive) | > 100 µM (inactive) | > 100 µM (inactive) | > 100 µM (inactive)
Cc1ccc(C(C)(C)C[P+](C)(c2ccccc2)c2ccccc2)cc1 | 4.42 µM (inactive) | 6.56 µM (inactive) | 4.46 µM (inactive) | 5 µM (inactive) | 4.71 µM (inactive) | 7.76 µM (inactive) | 4.18 µM (inactive) | 15.6 µM (inactive) | 11.7 µM (inactive) | 14 µM (inactive) | 12.7 µM (inactive) | 26.7 µM (inactive) | 28 µM (inactive) | 22.1 µM (inactive) | 3.56 µM (inactive) | 20.8 µM (inactive) | 
Nc1c(-c2nc3ccccc3[nH]2)sc(=S)n1-c1ccc(Cl)cc1 | 35.3 µM (inactive) |  | 19.7 µM (inactive) | 32.8 µM (inactive) | 28.6 µM (inactive) | 26.1 µM (inactive) | 36.2 µM (inactive) | 26.5 µM (inactive) | 36.6 µM (inactive) |  | 23.8 µM (inactive) | 22.9 µM (inactive) | 20.1 µM (inactive) | 34.3 µM (inactive) | 25.5 µM (inactive) | 29.6 µM (inactive) | 17.7 µM (inactive)
CC(=O)Nc1cccc(/N=N/N(C)C)c1 | > 100 µM (inactive) | > 100 µM (inactive) | > 100 µM (inactive) | 98.4 µM (inactive) | > 100 µM (inactive) | > 100 µM (inactive) | > 100 µM (inactive) | > 100 µM (inactive) | > 100 µM (inactive) | > 100 µM (inactive) | > 100 µM (inactive) | > 63.8 µM (inactive) | > 100 µM (inactive) | > 100 µM (inactive) | > 100 µM (inactive) | > 100 µM (inactive) | 
C/C=C/C(=O)Oc1cccc2cccnc12 | 18.6 µM (inactive) | 3.76 µM (inactive) | 19.7 µM (inactive) | 6.08 µM (inactive) | 16 µM (inactive) | 9.2 µM (inactive) | 1.45 µM (inactive) | 25.1 µM (inactive) | 4.91 µM (inactive) | 3.32 µM (inactive) | 4.61 µM (inactive) | 12.1 µM (inactive) | 7.83 µM (inactive) | 32.9 µM (inactive) | 4.62 µM (inactive) | 6.97 µM (inactive) | 18.2 µM (inactive)
CCCC(O)C(NC(=O)CCl)C(=O)O (stereo not drawn) | > 100 µM (inactive) | > 100 µM (inactive) | > 100 µM (inactive) | > 100 µM (inactive) | > 100 µM (inactive) | > 100 µM (inactive) | > 100 µM (inactive) | > 100 µM (inactive) | > 100 µM (inactive) | > 100 µM (inactive) | > 100 µM (inactive) | > 100 µM (inactive) | > 100 µM (inactive) | > 100 µM (inactive) | > 100 µM (inactive) | > 100 µM (inactive) | 
CSCCC(NC(=O)C(Cc1ccccc1)NC(=O)CNC(=O)CNC(=O)C(N)Cc1ccc(O)cc1)C(=O)O (stereo not drawn) | > 100 µM (inactive) | > 100 µM (inactive) | > 100 µM (inactive) | > 100 µM (inactive) | > 100 µM (inactive) | > 100 µM (inactive) | > 100 µM (inactive) |  | > 100 µM (inactive) | > 100 µM (inactive) | > 100 µM (inactive) | > 100 µM (inactive) | > 100 µM (inactive) | > 100 µM (inactive) | > 100 µM (inactive) | > 100 µM (inactive) | 
COc1ccc2c(c1O)C(=O)C(CCC(=O)O)CC2 (stereo not drawn) | > 100 µM (inactive) | > 100 µM (inactive) | > 100 µM (inactive) |  |  | > 100 µM (inactive) |  |  | > 100 µM (inactive) | > 100 µM (inactive) | > 100 µM (inactive) | 30.9 µM (inactive) | > 100 µM (inactive) | > 100 µM (inactive) | > 100 µM (inactive) |  | > 100 µM (inactive)
